# Results taken from patent US8653046B2, “Controlling transgene expression across the skin” (ETH Zurich, priority 2009, dated 2014).
# Experiments:
# TtgA1 (TtgR-VP16) = TtgA1 (TtgR-VP16) (Pseudomonas putida, UniProt Q9AIU0); assay: PEACE: SEAP expression after transient co-transfection of pMG10 (PTtgR1-SEAP-pA) and pMG11 (PSV40-TtgA1-pA); assay type: cell-based; parameters: key to SEAP Production: ^a): Undetectable; details: 48 h
# Excerpt: Living in the plant rhizosphere, Pseudomonas putida DOT-T1E has evolved resistance to a variety of plant-derived antimicrobials, which is triggered by phloretin-induced release of TtgR protein from the operator (OTtgR) of its target promoter and subsequent induction of a broadly specific TtgABC efflux pump (Teran W. et al., loc. cit.).
# Three different transactivators are designed, harboring either the VP16 (TtgA1; pMG11, TtgR-VP16) (Triezenberg S. J. et al., loc. cit.), the p65 (TtgA2; pMG18, TtgR-p65) (Urlinger S., et al., 2000, Gene 247(1-2):103-110) or the human E2F4 (TtgA3; pMG19, TtgR-E2F4) (Akagi K., Kanai M., Saya H., Kozu T., Berns A., 2001, Nucleic Acids Res 29(4):e23) transactivation domains. pMG11, pMG18 or pMG19 are co-transfected with pMG10 (PTtgR1-SEAP-pA) into CHO-K1, HEK-293 as well as primary human fibroblasts and keratinocytes, and SEAP expression is profiled after 48 h of cultivation in the presence or absence of 50 μM phloretin.
# CHO-K1 are transiently (co-)transfected with either pMG10 (PTtgR1-SEAP-pA) and pMG11 (PSV40-TtgA1-pA), to score regulation performance, or with pSEAP2-Control (PSV40-SEAP-pA), to assess compound-related cytotoxicity, and then cultivated for 48 h in medium containing different concentrations (0, 25, 50 μM) of specific flavonoid type compounds (berberine, butylparaben, genistein, luteolin, β-naphthol, naringenin, phloretin, phloridzin or quercetin) before SEAP production is profiled (FIG. 5A).
# Wild-type Chinese hamster ovary cells (CHO-K1, ATCC: CCL-61) and their derivatives are cultivated in standard medium: ChoMaster® HTS (Cell Culture Technologies, Gravesano, Switzerland) supplemented with 5% (v/v) fetal calf serum (FCS, PAN Biotech GmbH, Aidenbach, Germany, Cat. No. 3302, Lot No. P251110) and 1% (v/v) penicillin/streptomycin solution (Sigma, St Louis, Mo., USA, Cat. No. P4458). Human embryonic kidney cells (HEK-293, Mitta B., et al., 2002, Nucleic Acids Res 30(21):e113), African green monkey kidney cells (COS-7, ATCC: CRL-1651), baby hamster kidney cells (BHK-21, ATCC: CCL10), human fibrosarcoma cells (HT-1080, ATCC: CCL-121), the human keratinocyte cell line HaCaT (Boukamp P., et al., 1988, J Cell Biol 106(3):761-771) and mouse fibroblasts (NIH/3T3, ATCC: CRL-1658) are cultured in Dulbecco's modified Eagle's medium (DMEM; Invitrogen, Cat. No. 52100-39) supplemented with 10% FCS (v/v) and 1% (v/v) penicillin/streptomycin solution. Primary human foreskin fibroblasts are cultivated in DMEM supplemented with 20% FCS (v/v) and 1% (v/v) penicillin/streptomycin solution and primary human foreskin keratinocytes are cultured in chemically defined serum-free keratinocyte medium (Invitrogen, Cat. No. 10744019). All cell types are cultivated at 37° C. in a 5% CO2-containing humidified atmosphere.
# [1] = tested on: CHO-K1 cells transgenic for constitutive SEAP expression; assay: Control mice receiving CHO-K1 cells transgenic for constitutive SEAP expression, phloretin skin lotion; assay type: in vivo, female OF1 mice; details: constitutive SEAP implant; skin lotion with 42 mg phloretin (0 mg: 6.2±0.43 U/L)
# Description: CHO-PEACE8 is microencapsulated in coherent alginate-PLL-alginate capsules and implanted subcutaneously into mice. The back of treated mice is partially shaved and vaseline-based skin lotions (200 μL) containing different amounts of phloretin (0-42 mg) are put on every day. […] Control mice receiving CHO-K1 cells transgenic for constitutive SEAP expression are insensitive to any treatment with phloretin-containing skin lotion (0 mg phloretin: 6.2±0.43 U/L; 42 mg phloretin: 6.02±0.58 U/L).
# CHO-PEACE8 and CHO-SEAP18 (Fluri D. A., Kemmer C., Daoud-El Baba M., Fussenegger M., 2008, J Control Release 131(3):211-219) are encapsulated in alginate-poly-(L-lysine)-alginate beads (400 μm; 200 cells/capsule) using an Inotech Encapsulator Research IE-50R (Recipharm, Basel, Switzerland) according to the manufacturer's instructions and the following parameters: 0.2 mm nozzle, 20 mL syringe at a flow rate of 405 units, nozzle vibration frequency of 1024 Hz and 900 V for bead dispersion. […] Thereafter, the mice are sacrificed, blood samples collected and SEAP levels are quantified in the serum which is isolated using microtainer SST tube according to the manufacturer's instructions (Beckton Dickinson, Plymouth, UK). […]
# Sequence of TtgA1 (TtgR-VP16) (Q9AIU0 whole entry, added parts left off): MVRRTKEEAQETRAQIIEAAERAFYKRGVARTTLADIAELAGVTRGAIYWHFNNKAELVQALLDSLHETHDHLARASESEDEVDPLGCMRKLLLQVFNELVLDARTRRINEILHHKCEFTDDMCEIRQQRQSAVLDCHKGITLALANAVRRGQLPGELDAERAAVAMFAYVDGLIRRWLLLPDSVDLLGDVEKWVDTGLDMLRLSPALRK
smiles,measurement,setting,value
"O=C(CCc1ccc(O)cc1)c1c(O)cc(O)cc1O [phloretin, 3-[4-hydroxyphenyl]-1-[2,4,6-trihydroxyphenyl]-1-propanone]",SEAP Production,"TtgA1 (TtgR-VP16); BHK-21, 50 μM Phloretin",1.5 ± 0.2 U/L
same,PEACE regulation performance (SEAP production),"TtgA1 (TtgR-VP16); CHO-K1, 0, 25, 50 μM",full transgene repression
same,SEAP expression dose response,"TtgA1 (TtgR-VP16); CHO-K1, phloretin 0-70 μM",dose-dependent reduction of SEAP expression up to complete repression
same,SEAP Production,"TtgA1 (TtgR-VP16); CHO-K1, phloretin 50 μM",0.2 ± 0.016 U/L
same,SEAP Production,"TtgA1 (TtgR-VP16); COS-7, 50 μM Phloretin",*
same,SEAP Production,"TtgA1 (TtgR-VP16); HEK-293, 50 μM Phloretin",0.2 ± 0.04 U/L
same,SEAP Production,"TtgA1 (TtgR-VP16); HEK-293, phloretin 50 μM",0.2 ± 0.04 U/L
same,SEAP Production,"TtgA1 (TtgR-VP16); HT-1080, 50 μM Phloretin",*
same,SEAP Production,"TtgA1 (TtgR-VP16); HaCaT, 50 μM Phloretin",*
same,SEAP Production,"TtgA1 (TtgR-VP16); NIH/3T3, 50 μM Phloretin",*
same,SEAP Production,"TtgA1 (TtgR-VP16); Primary human fibroblasts, 50 μM Phloretin",*
same,SEAP Production,"TtgA1 (TtgR-VP16); Primary human keratinocytes, 50 μM Phloretin",*
same,SEAP level in control mice,[1],6.02±0.58 U/L
